For series [1], the system named is Swiss albino mice subjected to whole-body γ irradiation. In words: Survival of mice subjected to whole-body γ irradiation (LD50/30). The class given is in vivo. An excerpt:
Swiss albino mice (male, 9-10 weeks old, 30-32 g) were obtained from Charles River Laboratories (Wilmington, MA). This strain is among the most common used in radiation studies (Williams 2010). Mice were fed with a nutritionally complete diet (standard diet, SD) before irradiation. This was A03 from Panlab (Barcelona, Spain), which has 3,200 kcal/kg and the following nutritional composition: crude protein, 23.5%; crude fat, 4.3%; crude fiber, 3.7%; and carbohydrates, 51.1%; vitamins and minerals were provided as in the NIH-7 open formula for rat and mouse. This diet meets the dietary allowances recommended for adult mice by the American Institute of Nutrition. The animals were fed ad libitum and kept in individual metabolic cages, in which body weight and food ingestion were monitored daily. The animal room was maintained at 22° C. on a 12 h light/12 h dark cycle. Ad libitum intake of drinking water was also allowed. Care of irradiated mice followed the recommendation of the Robert Wood Johnson Medical School (Piscataway, NJ) for mouse total body irradiation (policy 15), which includes: a) use of antibiotics in the drinking water (134 mg ampicillin/kg/day, 40 mg baytril/kg/day, and 220/42 mg sulfamethoxazole/trimethoprim/kg/day), b) making drinking water readily available, c) Napa nectar Systems Engineering Lab Group Inc., Napa, CA) provided on the bottom of the cage during the first 14 days and replaced daily, d) provision of softened food served in a small Petri dish on the cage floor, e) completely sterile environment (cage, food, and water) to avoid potential immunosuppression-associated infections. A free-standing wheel inside the cage was also included to facilitate the physical exercise of the animals. All experiments were started at 10.00 h to minimize possible circadian variations. Procedures involving animals were in compliance with international laws and policies (EEC Directive 86/609, OJ L 358. 1, Dec. 12, 1987; and NIH Guide for the Care and Use of Laboratory Animals, NIH Publ. No. 85-23, 1985). Mice were subjected to g-radiation (^137Cs) (total body irradiation, TBI) in a BIOBEAM 8000 (Gamma-Service Medical GmbH, Leipzig, Germany). Single fraction radiotherapy, at total doses ranging from approx. 5.0 to 10.0 Gy, was administered at a rate of approx. […]. The irradiation distance from the source was limited to 12 cm. Radiation dosimetry was controlled using alanine dosimeters from Bruker (Billerica, MA) with dosimetry variation of +/−0.09 Gy. […] NR (nicotinamide riboside, 3-aminocarbonyl-1-b-D-ribofuranosyl-pyridinium, Elysium Health, Inc., New York, NY) was dissolved in vaccination-grade water, and the pH of the solution neutralized (pH 7.0) before oral administration (185 mg/kg×day, Obrador 2020). FSL-1 (InvivoGen, San Diego, CA) was resuspended in sterile vaccination-grade water, and administered IP (0.25 mg/kg×day, the volume administered was of […] depending on the weight of the mouse, as recommended by Kurkjian 2017). Pharmaceutical grade amifostine (Ethyol) was obtained from Cumberland Pharmaceuticals (Nashville, TN) as 500 mg sterile lyophilized powder vial, and reconstituted with physiological saline prior to use.
First, the effects of γ radiation and mice survival were studied. […] Mice received whole-body γ radiation (one single dose; ^137Cs, 0.5-0.6 Gy/min; Biobeam 8000, GSM GmbH). One Gy=absorption of 1 J of energy/kg of matter.
Next, the thirty-days survival of mice treated with γ rays (LD50/30) and pterostilbene (PT) was analysed (FIG. 1B).

The nature of series [2]: PT, SIL and NAD+ levels in circulating blood. Particulars: treated and irradiated mice, FIG. 10B. On the procedure: Briefly, samples were analyzed through HPLC (Ultimate 3000, Thermo Fisher Scientific) and MS/MS (Waters TQ detector triple quadrupole) systems on a Hypurity™ C18 column (50×4.6 mm) using an injection volume of 5 μL. The mobile phases consisted of water (A) and acetonitrile (B). […] MS/MS data acquisition was performed under negative electrospray ionization mode. […] The fragmentary voltage was 150 V, and the collision energy 15 eV. Tissue sample preparation was as described for determination of PTER levels (above).
Whole-blood samples (0.5 ml) were collected in sodium citrate tubes at 4° C. Then a whole-blood aliquot of 0.1 ml was transferred to a cryovial containing 0.9 ml of 0.5 M ice-cold perchloric acid to lyse all blood cells. Samples were centrifuged at 10,000 g×10 min (4° C.). Supernatants were stored at −80° C. until analyzed.

For series [3], the system named is hematopoietic colony forming cells CFU-GM and CFU-GEMM. Description: Colony forming cells in the bone marrow. The series is classed as in vivo. The settings on record: femurs of γ-irradiated mice, 7 days after irradiation, FIG. 14d. On the procedure: (§1) FIG. 14. […] Cells were isolated 72 h after irradiation. […] Mice were treated and cells isolated as above (a).
Mice were sacrificed under aseptic conditions and femurs were isolated on day 7 post irradiation. Bone marrow cells were flushed from the isolated femurs (see above) with phosphate-buffered saline (4° C.) supplemented with 5% fetal bovine serum. Single-cell suspension was passed through 100 μm nylon mesh strainer to remove debris and clumps. Cells were washed twice with phosphate-buffered saline (4° C.) and counted using a hemocytometer. Cells were plated ex vivo at a concentration of 5×10^4 cells per 35 mm cell culture dish in Methocult GF M3434 (Stemcell Technologies, Vancouver, Canada) growth medium according to the manufacturer's protocol and incubated for 14 days at 37° C., 5% CO2, 95% humidity. Colonies were visualized on day 14 of culture using light microscopy (AxioCam MRc5, Zeiss, Oberkochen, Germany) under a polarised light and scanned in a 60 mm gridded scoring Petri dish (Stemcell Technologies). Hematopoietic colony forming cells CFU-GM and CFU-GEMM were quantified.

A further series relates to cellular NAD+ content. In words: NAD+ content of cells isolated from mice. The class given is in vivo. The settings on record: FIG. 14a. The method, then: as §1
Isolated cells were homogenized in 0.1M phosphate buffer (pH 7.2) at 4° C. γ-glu tamylcysteine ligase (GCL), glutathione peroxidase (GPX), catalase (CAT), and superoxide dismutase 1 and 2 (SOD1 and SOD2) activities were measured as previously described in detail (Benlloch 2016). Protein concentration was determined with the Pierce BCA protein assay (Thermo Fisher Scientific). Glutathione ([…]-L-glutamyl-L-cystenyl-glycine, GSH) was determined by LC/MS as previously reported (Obrador 2014). Cell processing was performed according to published methodology, where rapid N-ethylmaleimide derivatization was used to prevent GSH auto-oxidation (Asensi 1994). NAD^+ and NADH in isolated cells were quantitated using assay kits from MyBiosource (San Diego, CA).
Presumably, the effect of the polyphenols is an antioxidant-related mechanism, whereas the NR-induced increase in NAD+ directly promotes the DNA repair activity.

The target of series [4] is nicotinamide phosphoribosyltransferase (NAMPT) (Mus musculus, UniProt Q99KQ4). Particulars: mice treated with FK866 for 6 days, FIG. 14b.
Description: FK866 was administered in vivo (15 mg/kg, twice daily by intraperitoneal injection, during 6 days and starting 3 days prior to irradiation, see FIG. 11a), and was also present in the cell cultures (100 nM). Cells were isolated 72 h after irradiation. […] Mice were treated with the inhibitor for 6 days as above (a).
Formation of 14C-nicotinamide mononucleotide (NMN) from 14C-nicotinamide (NAM, (GE Healthcare Life Sciences, Björkgatan, Uppsala, Sweden) can be measured by precipitation of 14C-NMN in acetone on filter paper and scintillation counting. Cell dispersion was carried out by trypsinization (in Mg^2+- and Ca2^+-free PBS supplemented with 0.2% trypsin, 0.5 mM EDTA, and 5 mM glucose for 3 min at 37° C.). Cell pellets were obtained by centrifugation (800 g×5 min at 4° C.), and then 100 μl of phosphate buffer [0.01 M Na2HPO4/NaH2PO4 buffer, pH 7.4, containing protease inhibitor (Sigma-Aldrich)] was added to each cell sample. Samples were further processed, and NAMPT activity was determined on 30 μg of protein as described previously (Elliott G C, et al. 1980, and Schuster S, et al. 2014). Radioactivity (disintegrations/min) was measured using a Tri-Carb® Liquid Scintillation Counter from Perkin-Elmer. Background disintegrations/min from scintillation fluid was subtracted from each measurement.
For the next series, the system named is cellular DNA damage. Description: Comet assay of DNA damage in cells isolated from γ-irradiated mice. The series is classed as in vivo. Particulars: FIG. 14c. On the procedure: as §1
This assay is a single cell gel electrophoresis assay for simple evaluation of cellular DNA damage. We used the assay kit from Abcam (ab238544) (Cambridge, UK). The manufacturer's instructions were followed step by step.

Where [5] appears, read: 60 days after γ radiation (LD50/30), compounds administered orally, FIG. 2C.
Setting [6] is: 60 days post γ irradiation (LD50/30), NR oral 185 mg/kg×day for 30 days after irradiation, FSL-1 IP 0.25 mg/kg once 24 h after, FIG. 9.
Setting [7] is: 6 days after γ radiation (LD50/30), compounds administered orally, FIG. 2A.

Sequence of nicotinamide phosphoribosyltransferase (NAMPT) (Q99KQ4 whole entry): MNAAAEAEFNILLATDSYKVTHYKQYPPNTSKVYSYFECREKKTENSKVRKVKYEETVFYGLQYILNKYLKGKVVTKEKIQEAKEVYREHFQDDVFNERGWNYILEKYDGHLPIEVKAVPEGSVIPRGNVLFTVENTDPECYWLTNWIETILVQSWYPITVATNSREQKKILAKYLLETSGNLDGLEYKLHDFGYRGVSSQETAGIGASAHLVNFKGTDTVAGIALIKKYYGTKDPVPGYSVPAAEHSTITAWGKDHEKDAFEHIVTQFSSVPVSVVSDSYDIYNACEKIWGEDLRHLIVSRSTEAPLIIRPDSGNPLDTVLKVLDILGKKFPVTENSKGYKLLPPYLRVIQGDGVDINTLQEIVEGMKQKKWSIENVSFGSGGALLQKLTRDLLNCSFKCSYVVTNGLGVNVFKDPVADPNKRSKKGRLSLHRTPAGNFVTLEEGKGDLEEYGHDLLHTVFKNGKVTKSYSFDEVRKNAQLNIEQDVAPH

In the case of `COc1cc([C@@H]2Oc3cc(C4Oc5cc(O)cc(O)c5C(=O)[C@H]4O)ccc3O[C@H]2CO)ccc1O` (stereo in doubt) [SIL, 3,5,7-trihydroxy-2-[3-(4-hydroxy-3-methoxyphenyl)-2-(hydroxymethyl)-2,3-dihydro-1,4-benzodioxin-6-yl]-2,3-dihydrochromen-4-one], the survival result in series [1] (setting [5]) is given as “around 10%”. Further, the “SIL levels in circulating blood, 30 min vs 120 min” value in series [2] is listed as “higher 30 min after”.

For FSL-1, the survival in series [1] (setting [6]) was determined as 5%. In series [3], the “hematopoietic colony forming cells CFU-GEMM” value is given as “increases” and the “hematopoietic colony forming cells CFU-GM” value is “increases”.

On to `Oc1cc(O)c2cc(O)c(-c3cc(O)c(O)c(O)c3)[o+]c2c1` [Delphinidin], for which the survival result in series [1] (setting [5]) was “around 12%”.

`O=C(CCc1ccc(O)cc1)c1c(O)cc(O)cc1O[C@@H]1O[C@H](CO)[C@@H](O)[C@H](O)[C@H]1O` [Phloridzin, phloridzin]: the survival in series [1] (setting [5]) was determined as 0%.

With `Oc1ccc(C=Cc2cc(O)cc(O)c2)cc1` [Resv, resveratrol], in series [1] (orally once per day, 5 days before and 2 days after γ irradiation (7.2 Gy), FIG. 1C), the “radioprotective effects compared with PT” value is “lower than those of PT”.

Take `O=c1c(-c2ccc(O)cc2)coc2cc(O)cc(O)c12` [Genistein, genistein]: the survival result in series [1] (setting [5]) is given as “around 7%”.

With `O=c1c(O)c(-c2ccc(O)c(O)c2)oc2cc(O)cc(O)c12` [Quercetin, quercetin], the survival in series [1] (setting [5]) is given as 0%.

For `O=C(O)c1cc(O)c(O)c(O)c1` [Gallic acid, gallic acid], the survival result in series [1] (setting [7]) is “around 100%”; in series [1] (setting [5]), “around 5%”.

With `O=c1cc(-c2ccc(O)c(O)c2)oc2cc(O)cc(O)c12` [Luteolin, luteolin], the survival in series [1] (setting [5]) turned out to be 0%. In series [1] (after 30 days, γ radiation (LD50/30), oral, FIG. 2B), the “percentage of survival reduced in” value is given as “about 40%”.

For `O=C(/C=C/c1cccnc1)NCCCCC1CCN(C(=O)c2ccccc2)CC1` [FK866, reference compound], the “NAD+ levels in mice treated with PT+SIL+NR or PT+SIL+NR+γ rays” value in the series with cellular NAD+ content (FK866 15 mg/kg twice daily IP 6 days and 100 nM in cell cultures) is on record as “decreased”. Further, the NAMPT activity entry in series [4] is given as “drastic decrease”.

In turn, `O=C1C[C@@H](c2ccc(O)cc2)Oc2cc(O)cc(O)c21` [Naringerin, naringenin] registered a survival in series [1] (setting [5]) of 0%.

With `NC(=O)c1ccc[n+]([C@@H]2O[C@H](CO)[C@@H](O)[C@H]2O)c1` [NR, 3-aminocarbonyl-1-b-D-ribofuranosyl-pyridinium], the survival in series [1] (setting [6]) turned out to be 0%. Moreover, the “decrease of NAD+ induced by γ radiation” value in the series on cellular NAD+ content (cells isolated 72 h after irradiation) is recorded as “prevents”. In addition, in the series on cellular NAD+ content (cells isolated from treated mice), the “NAD+ content in different cell types” value was “increases”. The “DNA recovery (DNA damage COMET assay)” value in the series on cellular DNA damage is given as “favored DNA recovery”.

For `O=C(O[C@@H]1Cc2c(O)cc(O)cc2O[C@@H]1c1cc(O)c(O)c(O)c1)c1cc(O)c(O)c(O)c1` [EGCG, epigallocatechin gallate], the survival result in series [1] (setting [7]) is given as “around 100%”; in series [1] (setting [5]), 0%.
